The subject of one data set is GCN2. On the set-up: method as in PMID 25587754. The conditions noted are these: biochemical inhibition of kinase activity; cited from earlier work.
The target of the next data set is T1, human GCN2 (Homo sapiens, UniProt Q9P2K8).
T1 construct: purchased Reaction Biology Corporation (Malvern, PA)
Kind of data set: radiometric HotSpot kinase assay. It is filed as biochemical. The conditions noted are these: ATP at the ATP Km of GCN2; means of two independent experiments. Here is the method:
(§1) Compounds 1–9 were screened in a radiometric […] kinase assay against human GCN2 and other kinases involved in the UPR and ISR pathways (Table 1). […] The most soluble of the potent tool compounds (1 and 2) were selected for in vitro cell-based assays where the phosphorylation of eIF2α (p-eIF2α) was used as a readout for GCN2 inhibition.
(§2) In vitro compound profiling for recombinant GCN2, PERK, HRI, PKR, or IRE1 kinases were performed at Reaction Biology Corporation (Malvern, PA) using the HotSpot kinase assay. Briefly, all compounds provided for testing were dissolved in 10 mM DMSO stock solutions. Serial dilutions were conducted by epMotion 5070 in DMSO. Specific kinase/substrate mixtures and required cofactors were prepared in reaction buffer (20 mM Hepes (pH 7.5), 10 mM MgCl2, 1 mM EGTA, 0.02% Brij35, 0.02 mg/ml BSA, 0.1 mM Na3VO4, 2 mM DTT, 1% DMSO). Compounds were added to the kinase reaction mixture by Acoustic technology (Echo550; nanoliter range) and incubated for 20 min at room temperature. The kinase reaction was initiated by adding ^33P ATP to a final concentration of 10 μM for single point kinase activity reading or to the ATP Km of GCN2 for IC50 readings. The reaction was incubated or 2 h at room temperature and kinase activity was detected by filter-binding method. IC50 values and curves were generated with GraphPad Prism 7 (GraphPad software).

The target of another data set is T2, PERK (Homo sapiens, UniProt Q9NZJ5).
T2 construct: purchased Reaction Biology Corporation (Malvern, PA)
T2 sequence (Q9NZJ5 30-1116): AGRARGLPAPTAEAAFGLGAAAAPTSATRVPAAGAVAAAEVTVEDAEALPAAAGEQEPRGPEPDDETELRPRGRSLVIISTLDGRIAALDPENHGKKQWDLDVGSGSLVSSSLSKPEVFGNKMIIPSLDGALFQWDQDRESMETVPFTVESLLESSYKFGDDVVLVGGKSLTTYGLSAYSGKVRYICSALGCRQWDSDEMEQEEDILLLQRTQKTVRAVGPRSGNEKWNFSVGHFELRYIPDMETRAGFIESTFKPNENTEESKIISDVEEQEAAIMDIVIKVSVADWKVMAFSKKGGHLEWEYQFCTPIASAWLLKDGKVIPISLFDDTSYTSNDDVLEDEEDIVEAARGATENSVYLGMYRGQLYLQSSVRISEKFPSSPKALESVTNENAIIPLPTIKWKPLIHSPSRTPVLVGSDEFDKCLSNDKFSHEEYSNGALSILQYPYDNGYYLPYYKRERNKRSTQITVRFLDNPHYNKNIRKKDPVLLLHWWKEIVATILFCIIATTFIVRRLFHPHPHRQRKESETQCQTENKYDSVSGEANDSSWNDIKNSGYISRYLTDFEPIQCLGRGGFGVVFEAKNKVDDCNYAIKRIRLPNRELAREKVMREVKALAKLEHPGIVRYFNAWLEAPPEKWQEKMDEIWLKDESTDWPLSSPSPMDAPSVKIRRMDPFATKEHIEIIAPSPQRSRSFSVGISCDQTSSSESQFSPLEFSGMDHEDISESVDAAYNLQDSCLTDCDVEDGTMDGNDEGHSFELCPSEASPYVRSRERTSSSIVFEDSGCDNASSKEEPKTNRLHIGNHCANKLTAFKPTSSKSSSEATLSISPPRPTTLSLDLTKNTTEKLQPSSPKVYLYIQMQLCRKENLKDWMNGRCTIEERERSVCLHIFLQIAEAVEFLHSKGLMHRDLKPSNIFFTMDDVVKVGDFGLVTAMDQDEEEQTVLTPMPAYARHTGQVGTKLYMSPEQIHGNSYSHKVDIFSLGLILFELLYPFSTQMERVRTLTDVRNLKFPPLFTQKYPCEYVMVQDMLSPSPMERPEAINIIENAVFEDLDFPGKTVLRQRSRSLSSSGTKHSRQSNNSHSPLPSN
Kind of data set: radiometric HotSpot kinase assay. The conditions noted are these: read-out: % Enzyme inhibition at 10 μM, PERK. It is filed as biochemical. Here is the method: as §2, with “Serial dilutions were conducted by epMotion 5070 in DMSO.” left out, “The kinase reaction was initiated by adding ^33P ATP to a final concentration of 10 μM for single point kinase activity reading or to the ATP Km of GCN2 for IC50 readings.” left out

The target of a further data set is T3, HRI (Homo sapiens, UniProt Q9BQI3).
T3 construct: purchased Reaction Biology Corporation (Malvern, PA)
Kind of data set: radiometric HotSpot kinase assay. The format is biochemical. The conditions noted are these: 10 μM compound, 10 μM ATP; read-out: % Enzyme inhibition at 10 μM, HRI. Here is the method:
as §1, §2

The next data set deals with T4, PKR (Homo sapiens, UniProt P19525).
T4 construct: purchased Reaction Biology Corporation (Malvern, PA)
Kind of data set: radiometric HotSpot kinase assay. It is filed as biochemical. The note with it: 10 μM compound, 10 μM ATP; read-out: % Enzyme inhibition at 10 μM, PKR. The protocol:
as §1, §2

Another data set deals with T5, IRE1 (Homo sapiens, UniProt O75460).
T5 construct: purchased Reaction Biology Corporation (Malvern, PA)
Kind of data set: radiometric HotSpot kinase assay. The conditions noted are these: 10 μM compound, 10 μM ATP; read-out: % Enzyme inhibition at 10 μM, IRE1. The format is biochemical. Here is the method:
as §1, §2

The next data set can be described thus: Kinetic solubility assay. It is filed as physicochemical. The conditions noted are these: aqueous buffer, kinetic from dmso stock; PBS pH 7.4, 25 °C, 2 h. The protocol:
Compound solubility was determined in PBS at pH 7.4 by Pharmaron, Inc. (Beijing, China). Briefly, all compounds and control solutions were prepared in DMSO at concentrations of 10 mM. Diclofenac was used as a positive control. 10 μL or 30 μL of each compound was added into a 96-well plate, followed by adding 990 μL or 970 μL, respectively, of PBS at pH 7.4. A stir stick was added to each well and wells were sealed using a molded PTDE/SIL 96-Well Plate Cover. […] After incubation the samples were transferred into the filter plate and filtered by Vacuum Manifold. The filtered samples were diluted with methanol to obtain 3 μM standards (STD). The samples were analyzed by LC-MS/MS against a standard of known concentration in DMSO. The solubility values of duplicate test compounds were calculated in Microsoft Excel using the following equation, where DF means dilution factor: Sample=AREASample×INJVOLStd×DFSample×STD/AREAStd×INJVOLSample

Data set [1] is described as follows: Permeability assay (PAMPA). The format is in vitro ADME. The conditions noted are these: pH 7.4, 25 °C, <10 low, >10 high permeability. Here is the method: GCN2 compound permeability was determined by PAMPA and was performed by Pharmaron, Inc. (Beijing, China). All compounds and control stock solutions were prepared in DMSO at a concentration of 10 mM. Testosterone and methotrexate were used as control compounds. Compound stock solutions were diluted with PBS (pH 7.4) to a final concentration of 10 μM. A 1.8% solution (w/v) of lecithin in dodecane was prepared and sonicated to ensure a complete dissolution. 5 μL of the lecithin/dodecane mixture were pipetted into each acceptor plate well (top compartment). Immediately after the application of the artificial membrane (within 10 min), 300 μL of PBS (pH 7.4) solution were added to each well of the acceptor plate. 300 μL of drug-containing solutions were added to each well of the donor plate (bottom compartment) in triplicate. The plate lid was replaced and incubated at 25 °C, 60 rpm for 16 h. After incubation, aliquots of 50 μL from each well of acceptor and donor plate were transferred into a 96-well plate and 200 μL of methanol (containing IS: 100 nM Alprazolam, 200 nM Labetalol and 2 μM Ketoprofen) was added to each well. The plate was vortexed at 750 rpm for 100 s. Samples were centrifuged at 3220g for 20 min. The compound concentrations were determined by LC/MS/MS. The effective permeability (Pe), in units of centimeter per second were calculated using the following equation: logPe=logC×−ln1−drugacceptor/drugequilibrium
(In general: In PAMPA a lipid-coated filter parts donor from acceptor wells.)

The values that follow come from paper PMC6197744, “Triazolo[4,5-d]pyrimidines as Validated General Control Nonderepressible 2 (GCN2) Protein Kinase Inhibitors Reduce Growth of Leukemia Cells” (Computational and Structural Biotechnology Journal, 2018).

≈ marks a conversion by molar mass, not a printed value. Read-outs that look alike come from different tables or passages of the source. A value given as a limit tells only on which side of the number the result lay.

T1 sequence (Q9P2K8 whole entry): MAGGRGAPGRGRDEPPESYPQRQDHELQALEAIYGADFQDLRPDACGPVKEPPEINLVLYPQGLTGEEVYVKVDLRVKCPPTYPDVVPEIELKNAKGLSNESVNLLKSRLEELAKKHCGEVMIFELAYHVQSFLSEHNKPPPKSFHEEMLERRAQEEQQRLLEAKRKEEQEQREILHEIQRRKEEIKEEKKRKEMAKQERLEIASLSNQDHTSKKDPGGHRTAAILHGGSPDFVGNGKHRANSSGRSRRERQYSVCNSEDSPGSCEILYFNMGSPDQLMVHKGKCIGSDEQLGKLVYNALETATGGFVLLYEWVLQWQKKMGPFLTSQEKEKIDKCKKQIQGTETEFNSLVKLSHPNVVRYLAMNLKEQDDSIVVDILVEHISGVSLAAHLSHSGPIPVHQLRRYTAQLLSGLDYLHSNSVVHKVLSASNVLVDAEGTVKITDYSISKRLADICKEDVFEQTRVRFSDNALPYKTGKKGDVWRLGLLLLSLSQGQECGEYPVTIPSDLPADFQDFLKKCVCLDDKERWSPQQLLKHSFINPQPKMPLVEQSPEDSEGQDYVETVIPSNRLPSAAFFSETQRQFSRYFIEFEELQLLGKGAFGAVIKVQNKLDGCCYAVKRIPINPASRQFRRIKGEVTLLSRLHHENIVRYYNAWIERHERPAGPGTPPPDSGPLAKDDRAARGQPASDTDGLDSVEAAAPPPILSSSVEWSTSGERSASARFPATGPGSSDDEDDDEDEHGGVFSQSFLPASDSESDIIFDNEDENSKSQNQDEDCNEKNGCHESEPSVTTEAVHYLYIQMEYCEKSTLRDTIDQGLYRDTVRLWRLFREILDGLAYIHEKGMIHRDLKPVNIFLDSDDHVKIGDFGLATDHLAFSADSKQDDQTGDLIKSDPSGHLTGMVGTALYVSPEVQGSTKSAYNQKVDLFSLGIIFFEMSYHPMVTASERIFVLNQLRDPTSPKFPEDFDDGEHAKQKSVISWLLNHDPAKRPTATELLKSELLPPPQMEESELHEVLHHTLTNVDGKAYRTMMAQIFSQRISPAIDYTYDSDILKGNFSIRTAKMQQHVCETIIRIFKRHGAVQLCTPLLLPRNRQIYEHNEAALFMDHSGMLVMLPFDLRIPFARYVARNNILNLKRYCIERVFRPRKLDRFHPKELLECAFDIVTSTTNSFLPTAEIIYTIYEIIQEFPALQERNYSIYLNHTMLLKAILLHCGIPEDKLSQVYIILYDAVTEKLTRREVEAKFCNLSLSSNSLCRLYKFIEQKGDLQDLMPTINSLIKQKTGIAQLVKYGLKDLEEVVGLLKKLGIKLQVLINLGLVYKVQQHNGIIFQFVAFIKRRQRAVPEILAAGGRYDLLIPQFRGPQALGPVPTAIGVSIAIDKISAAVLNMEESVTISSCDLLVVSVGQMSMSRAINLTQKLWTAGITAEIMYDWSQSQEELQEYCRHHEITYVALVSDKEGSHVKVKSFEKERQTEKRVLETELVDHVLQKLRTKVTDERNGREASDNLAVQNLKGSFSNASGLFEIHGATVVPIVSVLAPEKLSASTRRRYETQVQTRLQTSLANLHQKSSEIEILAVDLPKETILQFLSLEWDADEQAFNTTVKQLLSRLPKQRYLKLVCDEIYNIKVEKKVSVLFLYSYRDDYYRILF
T5 sequence (O75460 19-977): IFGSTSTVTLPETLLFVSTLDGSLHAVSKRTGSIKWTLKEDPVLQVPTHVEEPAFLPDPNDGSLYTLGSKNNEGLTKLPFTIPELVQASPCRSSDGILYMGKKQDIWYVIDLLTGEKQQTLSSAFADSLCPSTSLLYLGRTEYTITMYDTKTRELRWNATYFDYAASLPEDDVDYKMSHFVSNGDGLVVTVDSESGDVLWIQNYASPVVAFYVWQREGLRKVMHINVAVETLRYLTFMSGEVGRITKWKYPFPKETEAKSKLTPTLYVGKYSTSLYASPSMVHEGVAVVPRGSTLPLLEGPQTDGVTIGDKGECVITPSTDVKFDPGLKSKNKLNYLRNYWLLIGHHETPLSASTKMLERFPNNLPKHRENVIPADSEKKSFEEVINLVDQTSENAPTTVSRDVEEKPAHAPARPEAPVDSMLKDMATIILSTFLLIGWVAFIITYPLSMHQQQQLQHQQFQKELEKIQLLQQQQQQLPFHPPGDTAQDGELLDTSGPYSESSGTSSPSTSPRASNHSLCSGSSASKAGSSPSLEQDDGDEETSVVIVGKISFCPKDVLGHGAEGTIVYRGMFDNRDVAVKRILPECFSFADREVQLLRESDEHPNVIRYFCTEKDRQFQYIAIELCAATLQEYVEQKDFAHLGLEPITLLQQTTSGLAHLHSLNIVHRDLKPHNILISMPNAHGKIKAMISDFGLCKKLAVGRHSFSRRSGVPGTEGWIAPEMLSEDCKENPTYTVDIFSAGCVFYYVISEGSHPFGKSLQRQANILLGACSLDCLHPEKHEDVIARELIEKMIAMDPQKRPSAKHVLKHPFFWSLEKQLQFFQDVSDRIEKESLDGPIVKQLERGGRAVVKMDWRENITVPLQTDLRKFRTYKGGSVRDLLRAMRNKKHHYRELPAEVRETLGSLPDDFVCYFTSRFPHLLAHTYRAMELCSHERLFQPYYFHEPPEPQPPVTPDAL
T4 sequence (P19525 whole entry): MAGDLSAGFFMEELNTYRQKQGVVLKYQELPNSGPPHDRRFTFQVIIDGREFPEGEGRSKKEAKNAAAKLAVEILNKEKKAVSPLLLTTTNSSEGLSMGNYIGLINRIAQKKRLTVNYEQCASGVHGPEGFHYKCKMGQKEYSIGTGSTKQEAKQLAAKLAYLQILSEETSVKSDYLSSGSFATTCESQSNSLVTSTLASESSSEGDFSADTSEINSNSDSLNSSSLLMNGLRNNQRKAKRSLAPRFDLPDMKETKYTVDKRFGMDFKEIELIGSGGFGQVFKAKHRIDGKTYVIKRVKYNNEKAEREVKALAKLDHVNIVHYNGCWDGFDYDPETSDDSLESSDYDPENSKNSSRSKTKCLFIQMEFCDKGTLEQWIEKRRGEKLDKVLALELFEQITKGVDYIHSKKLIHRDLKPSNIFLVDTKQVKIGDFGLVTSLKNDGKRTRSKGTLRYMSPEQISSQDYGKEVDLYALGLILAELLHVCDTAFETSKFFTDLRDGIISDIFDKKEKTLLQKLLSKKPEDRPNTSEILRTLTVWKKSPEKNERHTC
T3 sequence (Q9BQI3 whole entry): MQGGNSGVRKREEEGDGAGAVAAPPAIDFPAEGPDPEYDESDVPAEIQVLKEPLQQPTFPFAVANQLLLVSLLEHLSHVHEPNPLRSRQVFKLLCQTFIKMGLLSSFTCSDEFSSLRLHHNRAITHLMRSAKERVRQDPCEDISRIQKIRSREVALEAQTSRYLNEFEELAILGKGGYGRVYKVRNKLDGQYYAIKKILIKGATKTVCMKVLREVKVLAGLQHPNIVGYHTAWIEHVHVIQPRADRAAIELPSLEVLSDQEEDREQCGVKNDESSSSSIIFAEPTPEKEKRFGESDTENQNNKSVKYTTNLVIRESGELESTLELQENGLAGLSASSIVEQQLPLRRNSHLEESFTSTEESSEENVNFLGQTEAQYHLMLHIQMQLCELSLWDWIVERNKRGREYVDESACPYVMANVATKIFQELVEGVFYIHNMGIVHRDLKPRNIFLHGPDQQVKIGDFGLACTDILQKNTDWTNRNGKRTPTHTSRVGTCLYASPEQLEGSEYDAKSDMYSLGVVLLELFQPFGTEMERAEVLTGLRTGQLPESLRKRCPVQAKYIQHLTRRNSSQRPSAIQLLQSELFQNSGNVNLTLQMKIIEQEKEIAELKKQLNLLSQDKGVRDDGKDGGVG

In general, IC50 refers to the concentration that inhibits the measured activity by half. For `CNc1ncc2c(F)c(-c3c(C)ccc(C(=O)c4c(-c5ccccc5)n(C)n(-c5ccccc5)c4=O)c3N)ccc2n1` [4-{2-amino-3-[5-fluoro-2-(methylamino)quinazolin-6-yl]-4-methylbenzoyl}-1-methyl-2,5-diphenyl-1,2-dihydro-3H-pyrazol-3-one], the IC50 with GCN2 was 36 nM.
A word on the inhibition: it is the share of the control response that was lost under treatment. The compound `CCOc1ccc(-n2nnc3cnc(Nc4cnn(C5CCOCC5)c4)nc32)cc1` [Compound 3, 3-(4-Ethoxyphenyl)-N-(1-(tetrahydro-2H-pyran-4-yl)-1H-pyrazol-4-yl)-3H-[1,2,3]triazolo[4,5-d]pyrimidin-5-amine] returned an IC50 on human GCN2 of 44.5 nM. Also, the inhibition at 10 µM at PERK (10 μM compound, 10 μM ATP) came out at 25%.
Broadly, the solubility is how much of the substance goes into solution per volume. In general, Papp refers to the rate of passage across a membrane or cell layer, normalised by area and donor concentration. A low value points to slow passage. On to `Fc1cc(-n2nnc3cnc(Nc4cnn(C5CCOCC5)c4)nc32)ccc1Cl` [Compound 4, 3-(4-Chloro-3-fluorophenyl)-N-(1-(tetrahydro-2H-pyran-4-yl)-1H-pyrazol-4-yl)-3H-[1,2,3]triazolo[4,5-d]pyrimidin-5-amine], for which the inhibition at 10 µM at HRI was below 10%; on PKR, 96%; at IRE1 it was 18%; at PERK (10 μM compound, 10 μM ATP) it was below 10%. At human GCN2, 25.7 nM corresponded to half-maximal inhibition (IC50). The compound further gave a solubility at 2 h in the data set “Kinetic solubility assay” of 0.05 µM (≈ 0.0207 µg/mL). Also, the Papp at 16 h, 10 μM in data set [1] was 2.19 ×10⁻⁶ cm/s.
As to `COC(=O)c1ccc(-n2nnc3cnc(Nc4cnn(C5CCOCC5)c4)nc32)cc1` [Compound 5, Methyl 4-(5-((1-(tetrahydro-2H-pyran-4-yl)-1H-pyrazol-4-yl)amino)-3H-[1,2,3]triazolo[4,5-d]pyrimidin-3-yl)benzoate], the inhibition at 10 µM at HRI was below 10%; at PKR, 96%; on IRE1, 22%; on PERK (10 μM compound, 10 μM ATP), below 10%. The compound also registered a 50% inhibitory concentration (IC50) against human GCN2 of 17.2 nM. This compound also registered a solubility at 2 h in “Kinetic solubility assay” of 0.2 µM (≈ 0.0841 µg/mL). Also, in data set [1], the Papp at 16 h, 10 μM was determined as 10.5 ×10⁻⁶ cm/s.
Turning to `c1nn(C2CCOCC2)cc1Nc1ncc2nnn(-c3ccc4cn[nH]c4c3)c2n1` [Compound 6, 3-(1H-Indazol-6-yl)-N-(1-(tetrahydro-2H-pyran-4-yl)-1H-pyrazol-4-yl)-3H-[1,2,3]triazolo[4,5-d]pyrimidin-5-amine], inhibition against human GCN2 was half-maximal at 20.5 nM (IC50). Moreover, the inhibition at 10 µM at PERK (10 μM compound, 10 μM ATP) amounted to 35%.
As for `CCOc1ccc(-n2nnc3cnc(Nc4cnn([C@H]5CC[C@H](O)CC5)c4)nc32)cc1` [Compound 7, trans-4-(4-((3-(4-Ethoxyphenyl)-3H-[1,2,3]triazolo[4,5-d]pyrimidin-5-yl)amino)-1H-pyrazol-1-yl)cyclohexan-1-ol], at human GCN2, 22.4 nM corresponded to half-maximal inhibition (IC50). On PERK (10 μM compound, 10 μM ATP), the inhibition at 10 µM was determined as 24%.
On to `O[C@H]1CC[C@H](n2cc(Nc3ncc4nnn(-c5ccc(Cl)c(F)c5)c4n3)cn2)CC1` [Compound 8, trans-4-(4-((3-(4-chloro-3-fluorophenyl)-3H-[1,2,3]triazolo[4,5-d]pyrimidin-5-yl)amino)-1H-pyrazol-1-yl)cyclohexan-1-ol], for which the inhibition at 10 µM on HRI was below 10%; at PKR, 98%; on IRE1, 15%; at PERK (10 μM compound, 10 μM ATP) it was below 10%. For the same compound, at human GCN2, half-maximal inhibition (IC50) was put at 21.1 nM. This compound also yielded a solubility at 2 h in the data set “Kinetic solubility assay” of 0.1 µM (≈ 0.0429 µg/mL). In addition, the Papp at 16 h, 10 μM in data set [1] was found to be 4.68 ×10⁻⁶ cm/s.
As for `COC(=O)c1ccc(-n2nnc3cnc(Nc4cnn([C@H]5CC[C@H](O)CC5)c4)nc32)cc1` [Compound 9, methyl 4-(5-((1-(trans-4-hydroxycyclohexyl)-1H-pyrazol-4-yl)amino)-3H-[1,2,3]triazolo[4,5-d]pyrimidin-3-yl)benzoate], the inhibition at 10 µM at HRI was below 10%; at PKR it was 95%; on IRE1 it was 24%; on PERK (10 μM compound, 10 μM ATP), 14%. Further, the IC50 against human GCN2 was 46.4 nM. The compound further came in with a solubility at 2 h in the data set “Kinetic solubility assay” of 0.17 µM (≈ 0.0739 µg/mL). The compound further came in with a Papp at 16 h, 10 μM in data set [1] of 2.29 ×10⁻⁶ cm/s.
With `Cc1cccc(CC(=O)N2CCc3c2ccc(-c2cn(C)c4ncnc(N)c24)c3F)n1` [GSK2656157, reference compound], the IC50 at human GCN2 is above 10000 nM. For the same compound, the inhibition at 10 µM on PERK amounted to 100%.
